Patent publication US7741493B2, “Heterocyclic compounds as P2X7 ion channel blockers” (Aventis Pharmaceuticals Inc., priority 2003, dated 2010)
Where a name gives a salt, the structure may show the parent alone.

biological target: T1, P2X7 (Homo sapiens, UniProt Q99572); assay: YO-PRO-1 dye uptake assay in U373 cells stably expressing P2X7; format: cell-based; parameters: The complete open reading frame of human P2X7 was amplified from Incyte clone 148057; expressed in transfected cells; details: IC50 (nM), dye uptake through P2X7, U373 cells, 300 μM BzATP, 5 μM YO-PRO-1, test compounds 30 nM to 3 μM
T1 sequence (Q99572 1-595): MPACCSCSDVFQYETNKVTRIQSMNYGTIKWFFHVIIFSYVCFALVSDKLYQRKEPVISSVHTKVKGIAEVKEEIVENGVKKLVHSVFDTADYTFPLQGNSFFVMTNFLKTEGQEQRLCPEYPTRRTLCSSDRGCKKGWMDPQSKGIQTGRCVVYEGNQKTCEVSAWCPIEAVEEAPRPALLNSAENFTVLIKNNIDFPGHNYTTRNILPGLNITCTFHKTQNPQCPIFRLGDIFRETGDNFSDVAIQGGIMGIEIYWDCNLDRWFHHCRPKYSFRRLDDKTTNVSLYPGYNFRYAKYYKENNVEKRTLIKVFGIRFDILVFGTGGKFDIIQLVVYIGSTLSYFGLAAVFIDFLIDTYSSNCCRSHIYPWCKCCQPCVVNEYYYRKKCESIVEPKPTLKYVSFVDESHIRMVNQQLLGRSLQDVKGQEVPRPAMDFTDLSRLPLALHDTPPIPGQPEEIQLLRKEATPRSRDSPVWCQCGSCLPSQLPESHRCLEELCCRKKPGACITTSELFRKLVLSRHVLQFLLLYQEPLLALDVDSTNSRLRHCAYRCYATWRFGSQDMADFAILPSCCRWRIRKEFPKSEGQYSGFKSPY
Method in brief: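 U373 cells stably expressing human P2X7 preincubated 20 min at 37° C. with compound (30 nM to 3 μM) in Mg/Ca-free HBSS. YO-PRO-1 (5 μM final) and BzATP (300 μM final) then added for 1.5 h at 37° C.; dye-uptake fluorescence compared with compound-free control.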

SMILES | IC50
c1ccc(CNCC2=N[C@@H](c3ccccc3)[C@@H](c3ccccc3)N2)cc1 [[(cis-4,5-Diphenyl-4,5-dihydro-1H-imidazol-2-yl)methyl]benzylamine ditrifluoroacetate] | 318 nM

same assay, conditions: dye uptake through P2X7, U373 cells, 300 μM BzATP, 5 μM YO-PRO-1, test compounds 30 nM to 3 μM; read-out: IC50

IC50 | SMILES
634 nM | Clc1cccc(CSC2=N[C@@H](c3ccccc3)[C@@H](c3ccccc3)N2)c1 [cis-4,5-diphenyl-2-(3-chlorobenzyl)thio-4,5-dihydro-1H-imidazole]
572 nM | Fc1ccc(CCC2=N[C@@H](c3cccc(F)c3)[C@@H](c3cccc(F)c3)N2)cc1 [2-[2-(4-Fluorophenyl)ethyl]-cis-4,5-bis-(3-fluorophenyl)-4,5-dihydro-1H-imidazole trifluoroacetate]
390 nM | Fc1ccc(CNC2=N[C@@H](c3ccccc3F)[C@@H](c3ccccc3F)N2)cc1 [(cis-4,5-bis-(2-Fluorophenyl)-4,5-dihydro-1H-imidazol-2-yl)-(4-fluorobenzyl)amine hydrochloride]
108 nM | C[C@@H](C1=N[C@@H](c2ccccc2)[C@@H](c2ccccc2)N1)c1ccccc1 [trifluoroacetate]
77 nM | Fc1cc(CNC2=N[C@@H](c3ccccc3)[C@@H](c3ccccc3)N2)cc(F)c1F [(cis-4,5-Diphenyl-4,5-dihydro-1H-imidazol-2-yl)-(3,4,5-trifluorobenzyl)amine hydrochloride]
198 nM | c1ccc(SCC2=N[C@@H](c3ccccc3)[C@@H](c3ccccc3)N2)cc1 [2-[(Phenylsulfanyl)methyl]-cis-4,5-diphenyl-4,5-dihydro-1H-imidazole trifluoroacetate]
353 nM | C[C@@]1(c2ccc(F)cc2)N=C(NCc2cccc(F)c2)N[C@@H]1c1ccc(F)cc1
587 nM | Clc1ccccc1CNC1=N[C@@H](c2ccccc2)[C@@H](c2ccccc2)N1 [cis-4,5-diphenyl-2-(2-chlorobenzyl)amino-4,5-dihydro-1H-imidazole]
241 nM | OC(C1=N[C@@H](c2ccccc2)[C@@H](c2ccccc2)N1)c1ccccc1 (stereo partly drawn) [cis-(4,5-diphenyl-4,5-dihydro-1H-imidazol-2-yl)-phenyl-methanol]
487 nM | C[C@@]1(c2ccccc2)N=C(COC2CCCC2)N[C@@H]1c1ccccc1 (relative stereo) [2-[(Cyclopentyloxy)methyl]-cis-4,5-diphenyl-4-methyl-4,5-dihydro-1H-imidazole hydrochloride]
135 nM | c1ccc(CNC2=N[C@@H](c3ccccc3)[C@@H](c3ccccc3)N2)cc1 [cis-4,5-diphenyl-2-benzylamino-4,5-dihydro-1H-imidazole]
90 nM | Fc1cccc([C@H]2NC(NCc3ccccc3)=N[C@H]2c2cccc(F)c2)c1 [[cis-4,5-bis-(3-Fluorophenyl)-4,5-dihydro-1H-imidazol-2-yl]-benzylamine hydrochloride]
503 nM | Brc1ccccc1CNC1=N[C@@H](c2ccccc2)[C@@H](c2ccccc2)N1 [cis-4,5-diphenyl-2-(2-bromobenzyl)amino-4,5-dihydro-1H-imidazole]
243 nM | Cc1ccccc1CNC1=N[C@@H](c2ccccc2)[C@@H](c2ccccc2)N1 [cis-4,5-diphenyl-2-(2-methylbenzyl)amino-4,5-dihydro-1H-imidazole]
104 nM | C[C@@]1(c2ccccc2)N=C(COc2cccc(F)c2)N[C@@H]1c1ccccc1 (relative stereo) [2-[(3-Fluorophenoxy)methyl]-cis-4,5-diphenyl-4-methyl-4,5-dihydro-1H-imidazole trifluoroacetate]
275 nM | Cc1ccc([C@H]2NC(NCc3ccccc3)=N[C@H]2c2ccc(C)cc2)cc1 [[cis-4,5-bis-(4-Methylphenyl)-4,5-dihydro-1H-imidazol-2-yl]-benzylamine hydrochloride]
240 nM | c1ccc([C@H]2NC(CC3Cc4ccccc4C3)=N[C@H]2c2ccccc2)cc1 [2-indan-2-ylmethyl-cis-4,5-diphenyl-4,5-dihydro-1H-imidazole trifluoroacetate]
506 nM | c1ccc([C@H]2NC(COC3CCCCCCC3)=N[C@H]2c2ccccc2)cc1 [2-[(Cyclooctyloxy)methyl]-cis-4,5-diphenyl-4,5-dihydro-1H-imidazole trifluoroacetate]
87 nM | Fc1ccccc1CCNC1=N[C@@H](c2ccccc2)[C@@H](c2ccccc2)N1 [(cis-4,5-Diphenyl-4,5-dihydro-1H-imidazol-2-yl)-[2-(2-fluorophenyl)ethyl]amine hydrochloride]
325 nM | c1ccc(COCC2=N[C@@H](c3ccccc3)[C@@H](c3ccccc3)N2)cc1 [cis-4,5-diphenyl-2-benzyloxymethyl-4,5-dihydro-1H-imidazole]

IC50 | SMILES
307 nM | Clc1ccc(CNC2=N[C@@H](c3ccccc3)[C@@H](c3ccccc3)N2)cc1Cl [cis-4,5-diphenyl-2-(3,4-dichlorobenzyl)amino-4,5-dihydro-1H-imidazole]
147 nM | CN(Cc1ccccc1)C1=N[C@@H](c2ccccc2)[C@@H](c2ccccc2)N1 [(cis-4,5-Diphenyl-4,5-dihydro-1H-imidazol-2-yl)-N-methylbenzylamine hydrochloride]
400 nM | Fc1ccc(CNC2=N[C@@H](c3ccc(Cl)cc3)[C@@H](c3ccc(Cl)cc3)N2)cc1F [[cis-4,5-bis-(4-Chlorophenyl)-4,5-dihydro-1H-imidazol-2-yl]-(3,4-difluorobenzyl)-amine hydrochloride]
334 nM | c1ccc([C@H]2NC(C3(c4ccccc4)CC3)=N[C@H]2c2ccccc2)cc1 [trifluoroacetate]
164 nM | Clc1cccc(CNC2=N[C@@H](c3ccccc3)[C@@H](c3ccccc3)N2)c1 [cis-4,5-diphenyl-2-(3-chlorobenzyl)amino-4,5-dihydro-1H-imidazole]
720 nM | c1ccc([C@H]2NC(CCc3ccccn3)=N[C@H]2c2ccccc2)cc1 [cis-4,5-diphenyl-2-[2-(2-pyridyl)ethyl)-4,5-dihydro-1H-imidazole]
139 nM | Cc1ccccc1[C@H]1NC(NCc2ccc(F)cc2)=N[C@H]1c1ccccc1C [[cis-4,5-bis-(2-Methylphenyl)-4,5-dihydro-1H-imidazol-2-yl]-(4-fluorobenzyl)amine hydrochloride]
224 nM | Fc1cccc(OCC2=N[C@@H](c3ccccc3)[C@@H](c3ccccc3)N2)c1 [2-[(3-Fluorophenoxy)methyl]-cis-4,5-diphenyl-4,5-dihydro-1H-imidazole trifluoroacetate]
139 nM | C[C@@]1(c2ccc(F)cc2)N=C(NCc2ccc(F)cc2)N[C@@H]1c1ccc(F)cc1
251 nM | c1ccc(CCC2=N[C@@H](c3ccccc3)[C@@H](c3cccnc3)N2)cc1 (relative stereo) [ditrifluoroacetate]
828 nM | Fc1ccc(CSC2=N[C@@H](c3ccccc3)[C@@H](c3ccccc3)N2)c(Cl)c1 [2-[(2-Chloro-4-fluorobenzyl)thio]-cis-4,5-diphenyl-4,5-dihydro-1H-imidazole hydrochloride]
42 nM | Cc1ccccc1CCC1=N[C@H](c2ccccc2)[C@H](c2ccccc2)N1 [cis-4,5-diphenyl-2-(2-(2-methylphenyl)ethyl)-4,5-dihydro-1H-imidazole]
102 nM | Fc1cc(F)cc(CNC2=N[C@@H](c3ccccc3)[C@@H](c3ccccc3)N2)c1 [(cis-4,5-Diphenyl-4,5-dihydro-1H-imidazol-2-yl)-(3,5-difluorobenzyl)amine hydrochloride]
471 nM | Clc1ccc(CNC2=N[C@@H](c3ccccc3)[C@@H](c3ccccc3)N2)cc1 [cis-4,5-diphenyl-2-(4-chlorobenzyl)amino-4,5-dihydro-1H-imidazole]
403 nM | FC(F)(F)c1ccc(CC2=N[C@@H](c3ccccc3)[C@@H](c3ccccc3)N2)cc1 [2-(4-Trifluoromethylbenzyl)-cis-4,5-diphenyl-4,5-dihydro-1H-imidazole trifluoroacetate]
722 nM | Cc1cccc(CSC2=N[C@@H](c3ccccc3)[C@@H](c3ccccc3)N2)c1 [cis-4,5-diphenyl-2-(3-methylbenzyl)thio-4,5-dihydro-1H-imidazole]
401 nM | Fc1ccc(OCC2=N[C@@H](c3ccccc3)[C@@H](c3ccccc3)N2)cc1 [2-[(4-Fluorophenoxy)methyl]-cis-4,5-diphenyl-4,5-dihydro-1H-imidazole trifluoroacetate]
397 nM | CC(OCC1=N[C@@](C)(c2ccccc2)[C@@H](c2ccccc2)N1)C1CC1 (relative stereo) [2-[(1-Cyclopropyl-1-ethoxy)methyl]-cis-4,5-diphenyl-4-methyl-4,5-dihydro-1H-imidazole trifluoroacetate]
150 nM | Cc1ccc([C@H]2NC(NCc3ccc(F)c(F)c3)=N[C@H]2c2ccc(C)cc2)cc1 [[cis-4,5-bis-(4-Methylphenyl)-4,5-dihydro-1H-imidazol-2-yl]-(3,4-difluorobenzyl)-amine hydrochloride]
